From patent US20230201151A1, “FORMULATIONS AND METHODS FOR TREATING ACUTE RESPIRATORY DISTRESS SYNDROME, ASTHMA, OR ALLERGIC RHINITIS” (UNIVERSITY OF FLORIDA RESEARCH FOUNDATION, INC., priority 2020, published 2023)

How the values were obtained:
Format in all cases: cell-based, human
ENaC [1] = experiment: Benzamil-sensitive Isc (ENaC activity) in differentiated HBECs, Ussing chamber; conditions: for cytokine concentration that decreased benzamil-sensitive Isc: 7 days incubation
Procedure: (§1) High individual variation in benzamil-sensitive current and TEER in HBECs. In an Ussing chamber-based experimental design, basal short-circuit current (Isc) and transepithelial electrical resistance (TEER) were recorded in differentiated HBECs from two lung donors that were grown on snapwells at an air-liquid interface for 28 to 35 days. Benzamil, a potent ENaC blocker was used to determine ENaC activity by calculating benzamil-sensitive Isc from changes in Isc that occur 15 minutes after adding 6 μM benzamil to the apical side of cells. […] Therefore, normalized data were used for all subsequent experiments for statistical analyses relating to FIGS. 13-18.
(§2) Basal treatment with cytokines [IL-13 (Abcam), IL-4 (PeproTech), TNF-α, IFN-γ and TGF-β1 (R&D Systems)] diluted in ALI medium started as early as day 14 post differentiation. Individual cytokines or cytokine cocktails were added to the culture medium at the desired concentrations and cells were incubated with the cytokines for a maximum of 16 days. ALI medium containing cytokines was changed every two days. Age-matched HBECs were assigned to the following treatment groups:
(§3) II Time-dependent studies: These studies were done using a concentration that ensured maximum inhibition of benzamil-sensitive Isc and TEER. HBECs were treated with respective cytokines for 2, 4, 6, 8, 10, 12, 14, or 16 days. IFN-γ, TNF-α or TGF-β1 at 1 ng/mL, IL-13 at 20 ng/mL and IL-4 at 2 ng/mL were used.
(§4) III Cytokine cocktails: were prepared using IFN-γ and TNF-α at 0.05, 0.5, 2.5, 5 and 10 ng/mL while TNF-α, IFN-γ and TGF-β1 at 1 ng/mL for each of the cytokines was added to the culture media for 7 days.
(§5) Ussing chamber experiments: Snapwells with differentiated HBECs that were incubated with cytokines or age-matched HBECs without cytokine exposure were mounted in Ussing chambers (Physiologic Instruments), and cells were either bathed in isotonic ringer solution containing 113.8 mM Na^+, 93.6 mM Cl^−, 25 mM HCO3^−, 5.2 mM K^+, 2.4 mM HPO4^−, 0.4 mM H2PO4^−, 1.2 mM Mg^2+, 1.2 mM Ca^2+, and 75 mM mannitol, or in AA-EC01. Glucose (5 mM) was added to the basal side, and chambers were bubbled with 95% O2 and 5% CO2 at 37° C. AA-EC01 contained 8 mM lysine, 8 mM tryptophan, 8 mM arginine, 8 mM glutamine, and 1.2 mM tyrosine, and AANC contained 8 mM leucine, 8 mM cysteine, 8 mM isoleucine, 8 mM aspartic acid and 8 mM glutamate (Ajinomoto), both diluted in an electrolyte solution containing 113.8 mM Na^t, 93.6 mM Cl^−, 25 mM HCO3^−, 5.2 mM K^+, 2.4 mM HPO4^−, 0.4 mM H2PO4^−, 1.2 mM Mg′, 1.2 mM Ca^2+ and 40 mM mannitol at pH 7.4 and 300 mOsm. Cell cultures were allowed to equilibrate in the Ussing chambers for 30 minutes while continuously voltage clamped to 0 mV. Basal short circuit current (Isc) and transepithelial electrical resistance (TEER) were recorded at 30-second intervals, and benzamil-sensitive Isc was calculated from the difference of basal Isc recorded after 30 minutes and Isc measured at 15 minutes after adding 6 μM of benzamil (ThermoFisher) to the apical side.
(§6) Statistical analysis: Results are presented as mean±standard error of mean (SEM). Analyses were performed with OriginPro 2018 software package. For each treatment group, values were tested for normal distribution using the Shapiro-Wilk normality test. […] The values were normalized to controls within the group, and data were pooled for comparison between groups. Kruskal-Wallis test was used for comparing the overall effect of ringer, AA-EC01 and AANC on benzamil-sensitive Isc and TEER, and Mann Whitney U test was used for pairwise comparison within the group and for comparison between basal values for each cytokine at zero ng/mL or day zero with each concentration and time period studied. P<0.05 was considered significant, and NS indicates not significant.

HBECs = experiment: TEER (epithelial barrier function) in differentiated HBECs, Ussing chamber; conditions: for TEER, normalized to control: day 16; for cytokine concentration that increased TEER / epithelial resistance: 7 days incubation
Procedure: as §1, §2, §3, §4, §5, §6

ENaC [2] = experiment: ENaC current in HBEC after increasing cytokine concentrations for 7 days (FIGS. 9-11); conditions: for ENaC activity with increasing cytokine concentration: 7 days (FIGS. 9, 11)
Procedure: FIG. 9: ENaC Activity in Human Bronchial Epithelial Cells after Exposure to Increasing Concentrations of TNF-α for 7 Days. Human bronchial epithelial cells (HBEC) were treated with different concentrations of TNF-α (0.00005, 0.0005, 0.005, 0.05, 0.5, 5, 50 or 500 ng/mL media) for 7 days.
FIG. 10: ENaC Activity in Human Bronchial Epithelial Cells after Exposure to Increasing Concentrations of IFN-γ for 7 Days. HBEC were treated with IFN-γ (0.00005, 0.0005, 0.005, 0.05, 0.5, 5, 50 or 500 ng/mL media) for 7 days.
FIG. 11: ENaC Activity in Human Bronchial Epithelial Cells after Exposure to Increasing Concentrations of TGF-β1 for 7 Days. HBEC were treated with TGF-β1 (0.00005, 0.0005, 0.005, 0.05, 0.5, 5, 50 or 500 ng/mL media) for 7 days.
In some embodiments, HBECs were treated with different concentrations of TNF-α ranging from 0.00005 ng/mL to 500 ng/mL TNF-α (e.g., 0.00005, 0.0005, 0.005, 0.05, 0.5, 5, 50 or 500 ng/mL TNF-α in media) for 7 days.

| Substance | benzamil-sensitive Isc, normalized to control (ENaC [1]; 1 ng/mL cytokine, day 16) [%] | cytokine concentration that decreased benzamil-sensitive Isc (ENaC [1]) [ng/mL] | benzamil-sensitive Isc, of baseline values (ENaC [1]; IFN-γ 5×10^−4 ng/mL, 7 days, normalized to control) [%] | TEER, normalized to control (HBECs; 1 ng/mL cytokine) [%] | cytokine concentration that increased TEER / epithelial resistance (HBECs) [ng/mL] | IFN-γ concentration at which ENaC current decreased relative to baseline (ENaC [2]; 7 days (FIG. 10)) [ng/mL media] | IFN-γ concentration with significant decrease in ENaC activity (ENaC [2]; 7 days (FIG. 10)) [ng] | benzamil-sensitive Isc, normalized to control (ENaC [1]; 2 ng/mL IL-4, day 4) [%] | benzamil-sensitive Isc, normalized to control (maximum reduction) (ENaC [1]; 2 ng/mL IL-4, day 10) [%] | TEER, normalized to control (maximum inhibition) (HBECs; 2 ng/mL IL-4, day 10) [%] | benzamil-sensitive Isc, normalized to control (ENaC [1]; 1 ng/mL cytokine, day 4) [%] | benzamil-sensitive Isc, normalized to control (ENaC [1]; TGF-β1 0.5 ng/mL, 7 days) [%] | benzamil-sensitive Isc, normalized to control (ENaC [1]; TGF-β1 50 ng/mL, 7 days) [%] | TEER over time (HBECs; 1 ng/mL cytokine, up to 16 days) | ENaC activity with increasing cytokine concentration (ENaC [2]) | benzamil-sensitive Isc, normalized to control (plateau of reduction) (ENaC [1]; TNF-α around 10 ng/mL, 7 days) [%] |
| --- | --- | --- | --- | --- | --- | --- | --- | --- | --- | --- | --- | --- | --- | --- | --- | --- |
| IFN-γ: type II IFN family cytokine (R&D Systems) added to HBEC culture medium | 43.7±7.0 | > 20 | 161.62±9.7 | 142.5±12.3 | ≥ 0.5 | > 0.05 | > 5 | – | – | – | – | – | – | – | – | – |
| IL-4: Th2 cytokine (PeproTech) added to HBEC culture medium | – | – | – | – | – | – | – | 59.9±9.4 | 8.6±5 | 37.5±2 | – | – | – | – | – | – |
| TGF-β1: Treg cytokine (R&D Systems) added to HBEC culture medium | 20.3±5.8 | ≥ 0.5 | – | – | ≥ 5 | – | – | – | – | – | 64.4±8.3 | 70.4±2.5 | 1.5±0.3 | remained unaffected | concentration-dependent decrease | – |
| TNF-α | 39.2±2.4 | ≥ 0.05 | – | 132.6±9.0 | – | – | – | – | – | – | 81.2±5.4 | – | – | – | concentration-dependent decrease | 17.4±3.6 |
